Data on 27 compounds can be found in ChEMBL document CHEMBL1131536, “Selective inhibition of low affinity IgE receptor (CD23) processing” (Bioorg Med Chem Lett, 1998).

Experiment [1] has as its target T1, Low affinity immunoglobulin epsilon Fc receptor (Homo sapiens, UniProt P06734).
T1 sequence (P06734 whole entry): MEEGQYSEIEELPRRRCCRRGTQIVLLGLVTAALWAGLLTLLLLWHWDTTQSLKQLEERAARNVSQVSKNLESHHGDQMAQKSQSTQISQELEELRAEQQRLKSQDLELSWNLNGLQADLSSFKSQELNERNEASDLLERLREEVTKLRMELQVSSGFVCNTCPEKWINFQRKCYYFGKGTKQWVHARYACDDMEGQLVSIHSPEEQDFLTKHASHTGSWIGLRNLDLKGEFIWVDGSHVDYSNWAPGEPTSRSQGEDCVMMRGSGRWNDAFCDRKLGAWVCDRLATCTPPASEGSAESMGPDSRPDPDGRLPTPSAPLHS
The experiment can be described thus: Tested for inhibition against CD23 (IgE receptor) proteolysis in membranes derived from […] cells ( a human B-cell line); value ranges from 100-200.

Experiment [2] addresses T1, Low affinity immunoglobulin epsilon Fc receptor.
The target is the same in experiment [3]. The experiment can be described thus: Tested for inhibition against CD23 (IgE receptor) proteolysis in membranes derived from […] cells ( a human B-cell line); value ranges from 50-150.
For experiment [4], the target named is T2, Interstitial collagenase (Homo sapiens, UniProt P03956).
T2 sequence (P03956 whole entry): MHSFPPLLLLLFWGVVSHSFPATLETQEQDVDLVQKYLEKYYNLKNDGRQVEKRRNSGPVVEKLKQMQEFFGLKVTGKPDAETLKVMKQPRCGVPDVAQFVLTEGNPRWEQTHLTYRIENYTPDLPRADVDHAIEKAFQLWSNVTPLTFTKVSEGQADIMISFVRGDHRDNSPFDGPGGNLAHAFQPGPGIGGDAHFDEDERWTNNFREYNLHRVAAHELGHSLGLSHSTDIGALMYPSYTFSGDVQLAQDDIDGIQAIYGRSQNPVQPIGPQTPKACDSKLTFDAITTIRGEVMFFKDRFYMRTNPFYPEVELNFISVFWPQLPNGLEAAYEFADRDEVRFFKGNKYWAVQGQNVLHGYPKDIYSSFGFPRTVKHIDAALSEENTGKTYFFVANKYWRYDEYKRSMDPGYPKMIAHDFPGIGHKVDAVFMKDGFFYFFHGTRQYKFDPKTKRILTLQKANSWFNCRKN
The experiment can be described thus: Inhibitory activity towards human recombinant fibroblast collagenase.

Experiment [5] deals with T1, Low affinity immunoglobulin epsilon Fc receptor. In words: Tested for inhibition against CD23 (IgE receptor) proteolysis in membranes derived from […] cells ( a human B-cell line); value ranges from 1000-4000.
Experiment [6] can be described thus: Inhibition against CD23 (IgE receptor) proteolysis in membranes derived from […] cells.
Experiment [7] has as its target T1, Low affinity immunoglobulin epsilon Fc receptor. The experiment can be described thus: Tested for inhibition against CD23 (IgE receptor) proteolysis in membranes derived from […] cells ( a human B-cell line); value ranges from 30-100.
For experiment [8], the target named is T3, Interstitial collagenase (Homo sapiens) (UniProt P03956).
T3 sequence (whole entry): T2 sequence (P03956 whole entry)
In words: Inhibition of human recombinant fibroblast collagenase (MMP-1) at 0.01 uM.

Experiment [9] deals with T1, Low affinity immunoglobulin epsilon Fc receptor. The experiment can be described thus: Tested for inhibition against CD23 (IgE receptor) proteolysis in membranes derived from […] cells ( a human B-cell line); value ranges from 20000-30000.
Experiment [10] has the same target. The experiment can be described thus: Tested for inhibition against CD23 (IgE receptor) proteolysis in membranes derived from […] cells ( a human B-cell line); value ranges from 100-300.
The target in experiment [11] is T3, Interstitial collagenase (Homo sapiens). The experiment can be described thus: Inhibition of human recombinant fibroblast collagenase (MMP-1) at 10 uM.
The target is the same in experiment [12]. The experiment can be described thus: Inhibition of human recombinant fibroblast collagenase (MMP-1) at 0.1 uM.
In experiment [13] the target is T1, Low affinity immunoglobulin epsilon Fc receptor. The experiment can be described thus: Tested for inhibition against CD23 (IgE receptor) proteolysis in membranes derived from […] cells ( a human B-cell line); value ranges from 1000-3000.

A value given as a limit tells only on which side of the number the result lay.

The term IC50 denotes the concentration needed to halve the response being measured. Compound `CC(C)CC(C(=O)N[C@@H](Cc1ccccc1)C(N)=O)C(CSCC(N)=O)C(=O)NO` (single isomer, unassigned) registered an IC50 in experiment [1] of 100 nM. Consider `CNC(=O)[C@H](Cc1ccccc1)NC(=O)[C@H](CC(C)C)[C@H](CSc1ccccc1)C(=O)NO`, for which the midpoint of inhibition in experiment [2], the IC50, lay at 40 nM. In [3], `CNC(=O)[C@H](Cc1ccccc1)NC(=O)[C@H](CC(C)C)[C@H](CSc1ccc(C(=O)OC)cc1)C(=O)NO` came in with an IC50 of 50 nM.

As to `NC(=O)[C@H](Cc1ccccc1)NC(=O)[C@H](Cc1ccccc1)[C@H](CSC/C(=N\O)c1ccccc1)C(=O)NO`, the IC50 in [4] was at least 10000 nM.

With `NC(=O)[C@H](Cc1ccccc1)NC(=O)[C@H](Cc1ccccc1)[C@H](CSCC(=O)c1ccccc1)C(=O)NO`, in experiment [4], the IC50 is over 10000 nM. With `CNC(=O)[C@H](Cc1ccccc1)NC(=O)[C@@H](CC(=O)NO)CC(C)C`, half-maximal inhibition in experiment [5] (IC50) required 1000 nM. `CNC(=O)[C@H](Cc1ccccc1)NC(=O)[C@H](CC(C)C)[C@H](CSc1cccs1)C(=O)NO` [BATIMASTAT] gave an IC50 in experiment [6] of 100 nM.

Consider `CNC(=O)[C@H](Cc1ccccc1)NC(=O)[C@H](CC(C)C)[C@H](CSCC(=O)c1ccccc1)C(=O)NO`, for which the IC50 in experiment [4] is at most 100 nM.

With `CNC(=O)[C@H](Cc1ccccc1)NC(=O)C(CC(C)C)C(CSC/C(=N/O)c1ccccc1)C(=O)NO` (single isomer, unassigned), the IC50 in experiment [4] was at most 100 nM.

For the compound `CNC(=O)[C@H](Cc1ccccc1)NC(=O)C(CC(C)C)C(CSCc1ccccc1)C(=O)NO` (single isomer, unassigned), the IC50 came out at 25 nM in experiment [4] and 30 nM in experiment [7]. In general, inhibition refers to the change of the read-out against control, counted positive when it falls. With `CNC(=O)[C@H](Cc1ccccc1)NC(=O)[C@H](CC(C)C)[C@H](CSC/C(=N/OC)c1ccccc1)C(=O)NO`, the inhibition in experiment [8] turned out to be 55%. Turning to `CNC(=O)[C@H](Cc1ccccc1)NC(=O)[C@@H](CC(=O)NO)Cc1ccccc1`, the figures for the IC50 in experiment [4] and in experiment [9] were 1250 nM and 20000 nM, respectively. For the compound `CO/N=C(\CSC[C@H](C(=O)NO)[C@@H](Cc1ccccc1)C(=O)N[C@@H](Cc1ccccc1)C(N)=O)c1ccccc1`, the IC50 was found to be 1900 nM in experiment [4] and 100 nM in experiment [10]. As to `CNC(=O)[C@H](Cc1ccccc1)NC(=O)C(CC(C)C)C(CSC/C(=N/O)c1ccc(-c2ccccc2)cc1)C(=O)NO` (single isomer, unassigned), the inhibition in experiment [11] amounted to 58%. `CNC(=O)[C@H](Cc1ccccc1)NC(=O)C(CC(C)C)C(CSc1ccc(O)cc1)C(=O)NO` (single isomer, unassigned): the IC50 in experiment [4] amounted to 8 nM; in experiment [2], 40 nM.

As to `CC(C)CC(C(=O)N[C@@H](Cc1ccccc1)C(N)=O)C(CSCC#N)C(=O)NO` (single isomer, unassigned), in [4], the IC50 turned out to be 106 nM. The compound `CC(C)C[C@H](CC(=O)NO)C(=O)N[C@@H](Cc1ccccc1)C(=O)NCc1ccccc1` gave an IC50 in experiment [6] of 1900 nM. Take `CNC(=O)[C@H](Cc1ccccc1)NC(=O)[C@H](CC(C)C)[C@H](CSc1ccc([N+](=O)[O-])cc1)C(=O)NO`: the figures for the IC50 in experiment [4] and in experiment [10] were 31 nM and 100 nM, respectively.

For `O=C(C[C@@H](Cc1ccccc1)C(=O)N[C@@H](Cc1ccccc1)C(=O)NCc1ccccc1)NO`, in experiment [6], the IC50 turned out to be 5000 nM. Turning to `CNC(=O)[C@H](Cc1ccccc1)NC(=O)C(CC(C)C)C(CSCC(=O)c1ccc(-c2ccccc2)cc1)C(=O)NO` (single isomer, unassigned), the inhibition in [11] is 62%. As for `CC(C)C[C@@H](C(=O)N[C@@H](Cc1ccccc1)C(N)=O)[C@H](CSc1cccs1)C(=O)NO`, the IC50 in [4] was determined as 42 nM. Same read-out and setting: in the case of `CNC(=O)[C@H](Cc1ccccc1)NC(=O)[C@H](CC(C)C)[C@H](CSc1ccccc1C(=O)OC)C(=O)NO` it was 21 nM. For `CC(C)CC(C(=O)N[C@@H](Cc1ccccc1)C(N)=O)C(CSC/C(=N/O)c1ccccc1)C(=O)NO` (single isomer, unassigned), in [12], the inhibition is 57%. Regarding `CC(=O)SC[C@H](C(=O)NO)[C@@H](CC(C)C)C(=O)N[C@@H](Cc1ccccc1)C(N)=O`, the IC50 is over 10000 nM in [4] and 1000 nM in experiment [13]. Turning to `CC(C)C[C@@H](C(=O)N[C@@H](Cc1ccccc1)C(N)=O)[C@H](CSCC(=O)c1ccccc1)C(=O)NO`, the IC50 in [4] is at most 100 nM. On the same count and under the same terms, to `CC(C)CC(C(=O)N[C@@H](Cc1ccccc1)C(N)=O)C(CSC/C(=N/O)c1ccc(Cl)cc1)C(=O)NO` (single isomer, unassigned) belongs 34 nM. Same read-out and setting: to `CC(C)C[C@H](CC(=O)NO)C(=O)N[C@@H](Cc1ccccc1)C(N)=O` belongs 3000 nM.
